# System: K12877-001-R-J1-PDC complex spheroid viability
# Test: Anticancer human tumor K12877-001-R-J1-PDC patient-derived lung adenocarcinoma cell line growth inhibition [RAS]
# Conditions: for viability, T/C: stronger effect = lower value
# Summary of the method: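 Tumour cells grown as complex spheroids with HUVEC endothelial cells and mesenchymal stem cells, treated with RAS pathway inhibitor combinations. Each agent spans half-log steps from near clinical Cmax, or 10 microM where Cmax is unknown.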
# 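Also: spheroids exposed to agents for one week before readout.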
# 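For viability, T/C in this document: tumour cells co-cultured with HUVEC and mesenchymal stem cells in spheroids.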
structure (smiles),measurement,setting,value
CC1(C)CCC(Nc2ncc(C(F)(F)F)c(-c3c[nH]c4c(P(C)(C)=O)c(C#N)ccc34)n2)CN1 (stereo unspecified) + CCn1c(-c2cc(N3CCN(C)CC3)cnc2C(C)OC)c2c3cc(ccc31)-c1csc(n1)CC(NC(=O)C1CC1C)C(=O)N1CCCC(N1)C(=O)OCC(C)(C)C2,IC50,"curve of first compound, second compound 0.000949 µM",45 nM
same,IC50,"curve of first compound, second compound 0.003 µM",45.9 nM
same,IC50,"curve of first compound, second compound 0.00949 µM",27.4 nM
same,IC50,"curve of first compound, second compound 0.03 µM",32.2 nM
same,IC50,"curve of first compound, second compound 0.0949 µM",30.8 nM
same,IC50,"curve of first compound, second compound 0.3 µM",37.6 nM
same,"viability, T/C","second compound 0.000949 µM, first compound 0.000949 µM",84.8%
same,"viability, T/C","second compound 0.000949 µM, first compound 0.003 µM",77.5%
same,"viability, T/C","second compound 0.000949 µM, first compound 0.00949 µM",78.1%
same,"viability, T/C","second compound 0.000949 µM, first compound 0.03 µM",57.4%
same,"viability, T/C","second compound 0.000949 µM, first compound 0.0949 µM",35.8%
same,"viability, T/C","second compound 0.000949 µM, first compound 0.3 µM",28%
same,"viability, T/C","second compound 0.003 µM, first compound 0.000949 µM",73.1%
same,"viability, T/C","second compound 0.003 µM, first compound 0.003 µM",66.7%
same,"viability, T/C","second compound 0.003 µM, first compound 0.00949 µM",65.3%
same,"viability, T/C","second compound 0.003 µM, first compound 0.03 µM",58%
same,"viability, T/C","second compound 0.003 µM, first compound 0.0949 µM",37.9%
same,"viability, T/C","second compound 0.003 µM, first compound 0.3 µM",29.1%
same,"viability, T/C","second compound 0.00949 µM, first compound 0.000949 µM",68.2%
same,"viability, T/C","second compound 0.00949 µM, first compound 0.003 µM",71.7%
same,"viability, T/C","second compound 0.00949 µM, first compound 0.00949 µM",61.5%
same,"viability, T/C","second compound 0.00949 µM, first compound 0.03 µM",50.7%
same,"viability, T/C","second compound 0.00949 µM, first compound 0.0949 µM",31.8%
same,"viability, T/C","second compound 0.00949 µM, first compound 0.3 µM",32.1%
same,"viability, T/C","second compound 0.03 µM, first compound 0.000949 µM",76%
same,"viability, T/C","second compound 0.03 µM, first compound 0.003 µM",70.6%
same,"viability, T/C","second compound 0.03 µM, first compound 0.00949 µM",72.4%
same,"viability, T/C","second compound 0.03 µM, first compound 0.03 µM",50.8%
same,"viability, T/C","second compound 0.03 µM, first compound 0.0949 µM",37%
same,"viability, T/C","second compound 0.03 µM, first compound 0.3 µM",36.2%
same,"viability, T/C","second compound 0.0949 µM, first compound 0.000949 µM",111%
same,"viability, T/C","second compound 0.0949 µM, first compound 0.003 µM",113%
same,"viability, T/C","second compound 0.0949 µM, first compound 0.00949 µM",88.6%
same,"viability, T/C","second compound 0.0949 µM, first compound 0.03 µM",50.5%
same,"viability, T/C","second compound 0.0949 µM, first compound 0.0949 µM",39.5%
same,"viability, T/C","second compound 0.0949 µM, first compound 0.3 µM",33.5%
same,"viability, T/C","second compound 0.3 µM, first compound 0.000949 µM",97.8%
same,"viability, T/C","second compound 0.3 µM, first compound 0.003 µM",98.7%
same,"viability, T/C","second compound 0.3 µM, first compound 0.00949 µM",72.6%
same,"viability, T/C","second compound 0.3 µM, first compound 0.03 µM",53.8%
same,"viability, T/C","second compound 0.3 µM, first compound 0.0949 µM",42.2%
same,"viability, T/C","second compound 0.3 µM, first compound 0.3 µM",37%
CC(=O)OC12COC1CC(O)C1(C)C(=O)C(O)C3=C(C)C(OC(=O)C(O)C(NC(=O)OC(C)(C)C)c4ccccc4)CC(O)(C(OC(=O)c4ccccc4)C21)C3(C)C (stereo unspecified),"viability, T/C",compound 0.0316 µM,8.58% [middle of 4 runs]
same,"viability, T/C",compound 0.1 µM,6.5% [middle of 4 runs]
same,"viability, T/C",compound 0.316 µM,5.06% [middle of 4 runs]
same,"viability, T/C",compound 1 µM,4.96% [middle of 4 runs]
same,"viability, T/C",compound 3.16 µM,6.68% [middle of 4 runs]
same,"viability, T/C",compound 10 µM,15% [middle of 4 runs]
same,IC50,curve of compound,< 31.6 nM
CCc1c2c(nc3ccc(O)cc13)-c1cc3c(c(=O)n1C2)COC(=O)[C@]3(O)CC + C=CC(=O)N1CCN(c2nc(OCC3CCCN3C)nc3c(F)c(-c4nc(N)cc(C)c4C(F)(F)F)c(Cl)cc23)C(C)C1,IC50,"curve of first compound, second compound 0.00316 µM",5.1 nM
same,IC50,"curve of first compound, second compound 0.01 µM",4.8 nM
same,IC50,"curve of first compound, second compound 0.0316 µM",4.04 nM
same,IC50,"curve of first compound, second compound 0.1 µM",4.57 nM
same,IC50,"curve of first compound, second compound 0.316 µM",4.75 nM
same,IC50,"curve of first compound, second compound 1 µM",4.35 nM
same,"viability, T/C","second compound 0.00316 µM, first compound 0.000949 µM",88.5%
same,"viability, T/C","second compound 0.00316 µM, first compound 0.003 µM",84%
same,"viability, T/C","second compound 0.00316 µM, first compound 0.00949 µM",10.2%
same,"viability, T/C","second compound 0.00316 µM, first compound 0.03 µM",4.07%
same,"viability, T/C","second compound 0.00316 µM, first compound 0.0949 µM",2.12%
same,"viability, T/C","second compound 0.00316 µM, first compound 0.3 µM",1.09%
same,"viability, T/C","second compound 0.01 µM, first compound 0.000949 µM",89%
same,"viability, T/C","second compound 0.01 µM, first compound 0.003 µM",77.8%
same,"viability, T/C","second compound 0.01 µM, first compound 0.00949 µM",9.78%
same,"viability, T/C","second compound 0.01 µM, first compound 0.03 µM",4.25%
same,"viability, T/C","second compound 0.01 µM, first compound 0.0949 µM",2.46%
same,"viability, T/C","second compound 0.01 µM, first compound 0.3 µM",1.37%
same,"viability, T/C","second compound 0.0316 µM, first compound 0.000949 µM",88.3%
same,"viability, T/C","second compound 0.0316 µM, first compound 0.003 µM",64.4%
same,"viability, T/C","second compound 0.0316 µM, first compound 0.00949 µM",8.38%
same,"viability, T/C","second compound 0.0316 µM, first compound 0.03 µM",4.14%
same,"viability, T/C","second compound 0.0316 µM, first compound 0.0949 µM",2.38%
same,"viability, T/C","second compound 0.0316 µM, first compound 0.3 µM",1.15%
same,"viability, T/C","second compound 0.1 µM, first compound 0.000949 µM",75.2%
same,"viability, T/C","second compound 0.1 µM, first compound 0.003 µM",73.2%
same,"viability, T/C","second compound 0.1 µM, first compound 0.00949 µM",9.95%
same,"viability, T/C","second compound 0.1 µM, first compound 0.03 µM",2.92%
same,"viability, T/C","second compound 0.1 µM, first compound 0.0949 µM",1.65%
same,"viability, T/C","second compound 0.1 µM, first compound 0.3 µM",1.21%
same,"viability, T/C","second compound 0.316 µM, first compound 0.000949 µM",83.4%
same,"viability, T/C","second compound 0.316 µM, first compound 0.003 µM",77.9%
same,"viability, T/C","second compound 0.316 µM, first compound 0.00949 µM",7.81%
same,"viability, T/C","second compound 0.316 µM, first compound 0.03 µM",3.82%
same,"viability, T/C","second compound 0.316 µM, first compound 0.0949 µM",2.34%
same,"viability, T/C","second compound 0.316 µM, first compound 0.3 µM",2.52%
same,"viability, T/C","second compound 1 µM, first compound 0.000949 µM",82.2%
same,"viability, T/C","second compound 1 µM, first compound 0.003 µM",69.9%
same,"viability, T/C","second compound 1 µM, first compound 0.00949 µM",8.23%
same,"viability, T/C","second compound 1 µM, first compound 0.03 µM",5.41%
same,"viability, T/C","second compound 1 µM, first compound 0.0949 µM",2.4%
same,"viability, T/C","second compound 1 µM, first compound 0.3 µM",1.32%

# Reference: PubChem BioAssay AID2060894 (Molecular Pharmacology Branch, DTP, NCI, 2025)
